Test results: patent publication EP1584686A1, “Progenitor cell preservation factors and related methods and products” (ImClone Systems Incorporated, priority 1999, dated 2001)

What was measured:
Dl-FRIL = target: T1, Dl-FRIL (Lablab purpureus, UniProt Q9ZTA9); conditions: Mo et al., Glycobiology 9:173-179,1999; cited from earlier work
T1 sequence (Q9ZTA9 9-272): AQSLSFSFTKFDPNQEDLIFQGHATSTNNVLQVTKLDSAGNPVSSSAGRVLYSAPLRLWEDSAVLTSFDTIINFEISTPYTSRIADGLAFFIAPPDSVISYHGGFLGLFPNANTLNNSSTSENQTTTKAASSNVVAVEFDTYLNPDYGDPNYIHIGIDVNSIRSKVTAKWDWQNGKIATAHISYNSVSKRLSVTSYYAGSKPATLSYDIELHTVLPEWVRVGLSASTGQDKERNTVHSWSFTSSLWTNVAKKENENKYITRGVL

[1] = target: FLT3 receptor on FLT3-transfected 3T3 cells (chimeric murine FLT3/human Fms receptor or full length human receptor, not told apart); assay: cell-based or functional assay
mice = conditions: single dose 150 mg/kg; Lerner and Harrison 1990; cited from earlier work

Compound: OC[C@H]1O[C@H](O[C@H]2O[C@H](CO)[C@@H](O)[C@H](O)[C@H]2O)[C@H](O)[C@@H](O)[C@@H]1O [α,α-trehalose]
- potency greater than mannose (Dl-FRIL): 3.6 fold

Compound: Pv-FRIL (Phaseolus vulgaris FRIL), native, purified from PHA-LCM or from red kidney bean extract
- Specific Activity (u/mg) in the Flt3 3T3 assay, after the Superdex 75 step [1]: 244000 units/mg

Compound: O=c1[nH]cc(F)c(=O)[nH]1 [5-FU, 5-fluorouracil]
- reduction of bone marrow cellularity (mice): > 90%
